# Experimental data taken from paper PMC9837035 (Nature Communications, 2023).
# Where “and” joins values, the source holds several entries; their conditions need not be identical. Equal entries are not always repeated.
# Assay: Hematological and hepatic parameters, 2-week repeated oral dosing
# Assay type: in vivo
# Conditions: rats
# [1] = RK-701 10 mg/kg for two weeks, individual animals 1-5, 10 mg/kg
# [2] = RK-701 30 mg/kg for two weeks, individual animals 1-5, 30 mg/kg
# [3] = RK-701 100 mg/kg for two weeks, individual animals 1-5, 100 mg/kg
smiles,measurement,setting,value
Cc1c(C(=O)NC(CCC2CC2)C(=O)Nc2ccc(C#N)cc2)[nH]c2c1C(=O)CC(C)(C)C2 (stereo not drawn) [RK-701],ALB,[1],3.3 g/dL and 3.6 g/dL and 3.5 g/dL and 3.9 g/dL
same,ALP,[1],498 IU/L and 658 IU/L and 651 IU/L and 305 IU/L and 323 IU/L
same,ALT,[1],35 IU/L and 24 IU/L and 23 IU/L and 29 IU/L and 31 IU/L
same,AST,[1],65 IU/L and 68 IU/L and 63 IU/L and 58 IU/L
same,EOS,[1],0.8 x 10^2 cells/μL and 0.5 x 10^2 cells/μL and 0.6 x 10^2 cells/μL
same,HCT,[1],43.6% and 43.5% and 41.3% and 46.1% and 43.9%
same,HGB,[1],15.1 g/dL and 14.9 g/dL and 14.2 g/dL and 16.2 g/dL and 15.2 g/dL
same,LUC,[1],0.5 x 10^2 cells/μL and 0.3 x 10^2 cells/μL and 0.2 x 10^2 cells/μL and 0.6 x 10^2 cells/μL
same,Lymph,[1],60.7 x 10^2 cells/μL and 48.8 x 10^2 cells/μL and 34.7 x 10^2 cells/μL and 52.6 x 10^2 cells/μL and 60.4 x 10^2 cells/μL
same,MCH,[1],20.6 pg and 20.7 pg and 19.3 pg and 20.9 pg and 20.5 pg
same,MCHC,[1],34.6 g/dL and 34.4 g/dL and 35.1 g/dL and 34.7 g/dL
same,MCV,[1],59.5 fL and 60.2 fL and 56.2 fL and 59.6 fL and 59.1 fL
same,MONO,[1],1 x 10^2 cells/μL and 0.9 x 10^2 cells/μL and 0.6 x 10^2 cells/μL and 1.2 x 10^2 cells/μL
same,NEUT,[1],8.2 x 10^2 cells/μL and 4.4 x 10^2 cells/μL and 6.1 x 10^2 cells/μL and 5.2 x 10^2 cells/μL and 8.1 x 10^2 cells/μL
same,PL,[1],141 mg/dL and 106 mg/dL and 124 mg/dL and 99 mg/dL and 133 mg/dL
same,PLT,[1],127.6 x 10^4 cells/μL and 123.4 x 10^4 cells/μL and 117.1 x 10^4 cells/μL and 123.6 x 10^4 cells/μL and 146.5 x 10^4 cells/μL
same,RBC,[1],732 x 10^4 cells/μL and 722 x 10^4 cells/μL and 735 x 10^4 cells/μL and 773 x 10^4 cells/μL and 743 x 10^4 cells/μL
same,Retic,[1],223.8 x 10^9 cells/L and 153 x 10^9 cells/L and 208.3 x 10^9 cells/L and 171.7 x 10^9 cells/L and 194.5 x 10^9 cells/L
same,T-CHO,[1],87 mg/dL and 57 mg/dL and 73 mg/dL and 64 mg/dL
same,TG,[1],26 mg/dL and 11 mg/dL and 19 mg/dL and 14 mg/dL and 48 mg/dL
same,TP,[1],5.8 g/dL and 6.1 g/dL and 5.9 g/dL and 6.4 g/dL
same,WBC,[1],71.3 x 10^2 cells/μL and 55 x 10^2 cells/μL and 42.1 x 10^2 cells/μL and 59.6 x 10^2 cells/μL and 70.9 x 10^2 cells/μL
same,ALB,[2],3.3 g/dL and 3.6 g/dL and 3.5 g/dL
same,ALP,[2],418 IU/L and 310 IU/L and 628 IU/L and 586 IU/L and 615 IU/L
same,ALT,[2],28 IU/L and 21 IU/L and 29 IU/L and 25 IU/L
same,AST,[2],71 IU/L and 66 IU/L and 59 IU/L and 54 IU/L and 70 IU/L
same,EOS,[2],0.4 x 10^2 cells/μL and 0.5 x 10^2 cells/μL and 0.7 x 10^2 cells/μL and 0.3 x 10^2 cells/μL
same,HCT,[2],41.9% and 44.7% and 43.2% and 41.2% and 41.8%
same,HGB,[2],13.9 g/dL and 15.2 g/dL and 14.7 g/dL and 14.2 g/dL and 14.4 g/dL
same,LUC,[2],0.5 x 10^2 cells/μL and 0.2 x 10^2 cells/μL and 0.6 x 10^2 cells/μL and 0.4 x 10^2 cells/μL
same,Lymph,[2],67.9 x 10^2 cells/μL and 38.8 x 10^2 cells/μL and 53.8 x 10^2 cells/μL and 52 x 10^2 cells/μL and 52.5 x 10^2 cells/μL
same,MCH,[2],18.8 pg and 19.5 pg and 21.3 pg and 20.8 pg
same,MCHC,[2],33.3 g/dL and 33.9 g/dL and 34.1 g/dL and 34.4 g/dL
same,MCV,[2],56.4 fL and 57.4 fL and 62.5 fL and 56.7 fL and 60.3 fL
same,MONO,[2],1 x 10^2 cells/μL and 0.8 x 10^2 cells/μL and 0.9 x 10^2 cells/μL
same,NEUT,[2],5.1 x 10^2 cells/μL and 8.7 x 10^2 cells/μL and 4.3 x 10^2 cells/μL and 6.5 x 10^2 cells/μL and 8.9 x 10^2 cells/μL
same,PL,[2],116 mg/dL and 127 mg/dL and 128 mg/dL and 100 mg/dL and 113 mg/dL
same,PLT,[2],120.9 x 10^4 cells/μL and 129.5 x 10^4 cells/μL and 130.8 x 10^4 cells/μL and 134.3 x 10^4 cells/μL and 95.6 x 10^4 cells/μL
same,RBC,[2],742 x 10^4 cells/μL and 779 x 10^4 cells/μL and 692 x 10^4 cells/μL and 726 x 10^4 cells/μL and 693 x 10^4 cells/μL
same,Retic,[2],276.8 x 10^9 cells/L and 221.1 x 10^9 cells/L and 186.9 x 10^9 cells/L and 199.2 x 10^9 cells/L and 253.8 x 10^9 cells/L
same,T-CHO,[2],63 mg/dL and 69 mg/dL and 62 mg/dL and 58 mg/dL and 68 mg/dL
same,TG,[2],16 mg/dL and 19 mg/dL and 25 mg/dL and 12 mg/dL and 11 mg/dL
same,TP,[2],5.7 g/dL and 6.1 g/dL and 6 g/dL and 5.8 g/dL
same,WBC,[2],74.9 x 10^2 cells/μL and 49.1 x 10^2 cells/μL and 60.2 x 10^2 cells/μL and 60.7 x 10^2 cells/μL and 63.2 x 10^2 cells/μL
same,ALB,[3],3.4 g/dL and 3.3 g/dL and 3.2 g/dL and 3.5 g/dL
same,ALP,[3],450 IU/L and 547 IU/L and 566 IU/L and 866 IU/L and 399 IU/L
same,ALT,[3],37 IU/L and 26 IU/L and 28 IU/L and 29 IU/L and 25 IU/L
same,AST,[3],63 IU/L and 59 IU/L and 68 IU/L and 70 IU/L and 58 IU/L
same,EOS,[3],0.3 x 10^2 cells/μL and 0.6 x 10^2 cells/μL and 0.8 x 10^2 cells/μL and 0.7 x 10^2 cells/μL
same,HCT,[3],43.3% and 44.1% and 41.3% and 42.5% and 43.5%
same,HGB,[3],14.8 g/dL and 15 g/dL and 14.4 g/dL and 14.6 g/dL
same,LUC,[3],0.4 x 10^2 cells/μL and 0.5 x 10^2 cells/μL and 0.3 x 10^2 cells/μL and 0.9 x 10^2 cells/μL
same,Lymph,[3],61.6 x 10^2 cells/μL and 55.7 x 10^2 cells/μL and 66.9 x 10^2 cells/μL and 49.9 x 10^2 cells/μL and 88.7 x 10^2 cells/μL
same,MCH,[3],20.2 pg and 20.4 pg and 20.6 pg and 20.1 pg
same,MCHC,[3],34.3 g/dL and 34 g/dL and 34.8 g/dL and 34.4 g/dL
same,MCV,[3],59 fL and 60.2 fL and 59.1 fL and 58.3 fL and 58.6 fL
same,MONO,[3],1.3 x 10^2 cells/μL and 0.7 x 10^2 cells/μL and 1.6 x 10^2 cells/μL and 1 x 10^2 cells/μL and 1.4 x 10^2 cells/μL
same,NEUT,[3],7.8 x 10^2 cells/μL and 2.7 x 10^2 cells/μL and 9.7 x 10^2 cells/μL and 9.5 x 10^2 cells/μL and 9.3 x 10^2 cells/μL
same,PL,[3],153 mg/dL and 118 mg/dL and 132 mg/dL and 110 mg/dL and 173 mg/dL
same,PLT,[3],110.2 x 10^4 cells/μL and 121.4 x 10^4 cells/μL and 96 x 10^4 cells/μL and 122.9 x 10^4 cells/μL and 114.3 x 10^4 cells/μL
same,RBC,[3],733 x 10^4 cells/μL and 700 x 10^4 cells/μL and 729 x 10^4 cells/μL and 744 x 10^4 cells/μL
same,Retic,[3],130.2 x 10^9 cells/L and 149.9 x 10^9 cells/L and 250.7 x 10^9 cells/L and 185.7 x 10^9 cells/L and 177.3 x 10^9 cells/L
same,T-CHO,[3],94 mg/dL and 67 mg/dL and 91 mg/dL and 72 mg/dL and 116 mg/dL
same,TG,[3],26 mg/dL and 19 mg/dL and 9 mg/dL and 8 mg/dL and 32 mg/dL
same,TP,[3],5.6 g/dL and 5.8 g/dL and 5.9 g/dL and 5.7 g/dL and 6.2 g/dL
same,WBC,[3],71.5 x 10^2 cells/μL and 60.2 x 10^2 cells/μL and 79.6 x 10^2 cells/μL and 61.2 x 10^2 cells/μL and 101.3 x 10^2 cells/μL
same,effect on hematological and hepatic parameters,"oral, up to 100 mg/kg, two weeks",no serious effect
same,ALB,"two weeks, 10 mg/kg",3.6 ± 0.2 g/dL
same,ALP,"two weeks, 10 mg/kg",487 ± 170 IU/L
same,ALT,"two weeks, 10 mg/kg",28 ± 5 IU/L
same,AST,"two weeks, 10 mg/kg",64 ± 4 IU/L
same,EOS,"two weeks, 10 mg/kg",0.6 ± 0.1 x 102 cells/μL
same,HCT,"two weeks, 10 mg/kg",43.7± 1.7%
same,HGB,"two weeks, 10 mg/kg",15.1 ± 0.7 g/dL
same,LUC,"two weeks, 10 mg/kg",0.4 ± 0.2 x 102 cells/μL
same,Lymph,"two weeks, 10 mg/kg",51.4 ± 10.7 x 102 cells/μL
same,MCH,"two weeks, 10 mg/kg",20.4 ± 0.6 pg
same,MCHC,"two weeks, 10 mg/kg",34.6 ± 0.3 g/dL
same,MCV,"two weeks, 10 mg/kg",58.9 ± 1.6 fL
same,MONO,"two weeks, 10 mg/kg",0.9 ± 0.2 x 102 cells/μL
same,NEUT,"two weeks, 10 mg/kg",6.4 ± 1.7 x 102 cells/μL
same,PL,"two weeks, 10 mg/kg",121 ± 18 mg/dL
same,RBC,"two weeks, 10 mg/kg",741 ± 19 x 104 cells/μL
same,Retic,"two weeks, 10 mg/kg",190 ± 28.3 x 109 cells/L
same,T-CHO,"two weeks, 10 mg/kg",68 ± 13 mg/dL
same,TG,"two weeks, 10 mg/kg",24 ± 15 mg/dL
same,TP,"two weeks, 10 mg/kg",6.0 ± 0.3 g/dL
same,WBC,"two weeks, 10 mg/kg",59.8 ± 12.2 x 102 cells/μL
same,ALB,"two weeks, 30 mg/kg",3.5 ± 0.2 g/dL
same,ALP,"two weeks, 30 mg/kg",511 ± 141 IU/L
same,ALT,"two weeks, 30 mg/kg",26 ± 3 IU/L
same,AST,"two weeks, 30 mg/kg",64 ± 7 IU/L
same,EOS,"two weeks, 30 mg/kg",0.5 ± 0.1 x 102 cells/μL
same,HCT,"two weeks, 30 mg/kg",42.6 ± 1.4%
same,HGB,"two weeks, 30 mg/kg",14.5 ± 0.5 g/dL
same,LUC,"two weeks, 30 mg/kg",0.4 ± 0.1 x 102 cells/μL
same,Lymph,"two weeks, 30 mg/kg",53.0 ± 10.3 x 102 cells/μL
same,MCH,"two weeks, 30 mg/kg",20.0 ± 1.0 pg
same,MCHC,"two weeks, 30 mg/kg",34.0 ± 0.5 g/dL
same,MCV,"two weeks, 30 mg/kg",58.7 ± 2.6 fL
same,MONO,"two weeks, 30 mg/kg",0.9 ± 0.1 x 102 cells/μL
same,NEUT,"two weeks, 30 mg/kg",6.7 ± 2.1 x 102 cells/μL
same,PLT,"two weeks, 30 mg/kg",122 ±15.7 x 104 cells/μL
same,RBC,"two weeks, 30 mg/kg",726 ± 36 x 104 cells/μL
same,Retic,"two weeks, 30 mg/kg",228 ± 37.5 x 109 cells/L
same,T-CHO,"two weeks, 30 mg/kg",64 ± 5 mg/dL
same,TG,"two weeks, 30 mg/kg",17 ± 6 mg/dL
same,TP,"two weeks, 30 mg/kg",5.9 ± 0.2 g/dL
same,WBC,"two weeks, 30 mg/kg",61.6 ± 9.2 x 102 cells/μL
same,ALB,"two weeks, 100 mg/kg",3.4 ± 0.1 g/dL
same,ALP,"two weeks, 100 mg/kg",566 ± 181 IU/L
same,ALT,"two weeks, 100 mg/kg",29 ± 5 IU/L
same,AST,"two weeks, 100 mg/kg",64 ± 5 IU/L
same,EOS,"two weeks, 100 mg/kg",0.6 ± 0.2 x 102 cells/μL
same,HCT,"two weeks, 100 mg/kg",42.9 ± 1.1%
same,HGB,"two weeks, 100 mg/kg",14.8 ± 0.3 g/dL
same,LUC,"two weeks, 100 mg/kg",0.5 ± 0.2 x 102 cells/μL
same,Lymph,"two weeks, 100 mg/kg",64.6 ± 14.9 x 102 cells/μL
same,MCH,"two weeks, 100 mg/kg",20.3 ± 0.2 pg
same,MCHC,"two weeks, 100 mg/kg",34.4 ± 0.3 g/dL
same,MCV,"two weeks, 100 mg/kg",59.0 ± 0.7 fL
same,MONO,"two weeks, 100 mg/kg",1.2 ± 0.4 x 102 cells/μL
same,NEUT,"two weeks, 100 mg/kg",7.8 ± 2.9 x 102 cells/μL
same,PL,"two weeks, 100 mg/kg",137 ± 26 mg/dL
same,Retic,"two weeks, 100 mg/kg",179 ± 45.9 x 109 cells/L
same,T-CHO,"two weeks, 100 mg/kg",88 ± 20 mg/dL
same,TG,"two weeks, 100 mg/kg",19 ± 10 mg/dL
same,TP,"two weeks, 100 mg/kg",5.8 ± 0.2 g/dL
same,WBC,"two weeks, 100 mg/kg",74.8 ± 16.8 x 102 cells/μL
